Results: ChEMBL document CHEMBL1201862, “PubChem BioAssay data set” (2004)
Values joined by “and” are separate entries in the source; they are usually repeats but may differ in a detail not shown here. Equal values may be shown once.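 1) Cells in 96-well plates. 2) Compound, 48 h, 5 concentrations. 3) Linear interpolation between surrounding doses. 4) Unreached endpoint = highest concentration. GI50 marks 50% less growth.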 Active and inactive are the calls of the source. Cut-off read from the data, not from the text of the source: active = GI50 up to about 1.1 µM and inactive = higher.

Key:
Test in all cases: growth of human tumour cells (NCI), 48 h
U-251 = tested on: U-251
SNB-19 = tested on: SNB-19
T47D = tested on: T47D
Malme-3M = tested on: Malme-3M
COLO 205 = tested on: COLO 205
NCI-H23 = tested on: NCI-H23
M14 = tested on: M14
SN12C = tested on: SN12C
HCT-116 = tested on: HCT-116
SNB-75 = tested on: SNB-75
EKVX = tested on: EKVX
HCC 2998 = tested on: HCC 2998
786-0 = tested on: 786-0
HOP-62 = tested on: HOP-62
A549 = tested on: A549
SF-539 = tested on: SF-539
HOP-92 = tested on: HOP-92
OVCAR-4 = tested on: OVCAR-4
HL-60 = tested on: HL-60
MDA-N = tested on: MDA-N
SK-MEL-28 = tested on: SK-MEL-28
NCI-H460 = tested on: NCI-H460
SK-OV-3 = tested on: SK-OV-3
SF-295 = tested on: SF-295
SK-MEL-2 = tested on: SK-MEL-2
UACC-62 = tested on: UACC-62
HT-29 = tested on: HT-29
MCF7 = tested on: MCF7
UO-31 = tested on: UO-31
SF-268 = tested on: SF-268
RXF 393 = tested on: RXF 393
OVCAR-8 = tested on: OVCAR-8
LOX IMVI = tested on: LOX IMVI
KM12 = tested on: KM12
CAKI-1 = tested on: CAKI-1
IGROV-1 = tested on: IGROV-1
OVCAR-5 = tested on: OVCAR-5
HCT-15 = tested on: HCT-15
NCI/ADR-RES = tested on: NCI/ADR-RES
A498 = tested on: A498
DU-145 = tested on: DU-145
NCI-H522 = tested on: NCI-H522
K562 = tested on: K562
UACC-257 = tested on: UACC-257
OVCAR-3 = tested on: OVCAR-3
SK-MEL-5 = tested on: SK-MEL-5
SW-620 = tested on: SW-620
PC-3 = tested on: PC-3
ACHN = tested on: ACHN
MDA-MB-435 = tested on: MDA-MB-435
SR = tested on: SR
TK-10 = tested on: TK-10
BT-549 = tested on: BT-549
NCI-H226 = tested on: NCI-H226
MDA-MB-231 = tested on: MDA-MB-231
RPMI-8226 = tested on: RPMI-8226
MOLT-4 = tested on: MOLT-4
CCRF-CEM = tested on: CCRF-CEM

Measured: GI50

Cc1cc(NCCCCCCNc2cc(C)nc3ccc(N)cc23)c2cc(N)ccc2n1
inactive: U-251 62.8 µM | SNB-19 58.5 µM

OC1(c2ccccc2)CCCCCCCCC(O)(c2ccccc2)CCCCCCCC1 (stereo not drawn)
> 100 µM: HCT-15
inactive: T47D > 100 µM | Malme-3M > 100 µM | COLO 205 > 100 µM | NCI-H23 > 100 µM | M14 > 100 µM | SN12C > 100 µM | HCT-116 > 100 µM | SNB-75 > 100 µM | EKVX > 100 µM | HCC 2998 > 100 µM | 786-0 > 100 µM | HOP-62 > 100 µM | A549 > 100 µM | SF-539 > 100 µM | HOP-92 > 100 µM | OVCAR-4 > 100 µM | HL-60 59.2 µM | MDA-N > 100 µM | SK-MEL-28 > 100 µM | NCI-H460 > 100 µM | SK-OV-3 > 100 µM | SF-295 > 100 µM | SK-MEL-2 > 100 µM | UACC-62 > 100 µM | HT-29 > 100 µM | MCF7 > 100 µM | UO-31 > 100 µM | SF-268 > 100 µM | RXF 393 > 100 µM | OVCAR-8 > 100 µM | LOX IMVI > 100 µM | KM12 > 100 µM | CAKI-1 > 100 µM | IGROV-1 > 100 µM | OVCAR-5 > 100 µM | NCI/ADR-RES > 100 µM | U-251 > 100 µM | A498 > 100 µM | DU-145 > 100 µM | NCI-H522 > 100 µM | K562 > 100 µM | UACC-257 > 100 µM | OVCAR-3 > 100 µM | SK-MEL-5 > 100 µM | SW-620 > 100 µM | PC-3 > 100 µM | ACHN > 100 µM | MDA-MB-435 > 100 µM | SR > 100 µM | SNB-19 > 100 µM | TK-10 > 100 µM

COC(=O)CCc1cc(OC)c2c(c1)C(C(=O)OC)C(c1ccc(OC)c(OC)c1)O2 (stereo not drawn)
inactive: T47D 24.8 µM | NCI-H23 > 100 µM and > 71 µM | SN12C 62.4 µM | SNB-75 10.6 µM | EKVX > 52.5 µM | HCC 2998 60.5 µM | HOP-92 > 95.7 µM | OVCAR-4 > 100 µM and 58.5 µM | HT-29 5.32 µM | RXF 393 34.9 µM | BT-549 22.6 µM and 42.4 µM | OVCAR-5 > 79.1 µM | UACC-257 > 100 µM | ACHN 59.2 µM | TK-10 > 100 µM and > 91.4 µM

COCCOCN(C(=O)C1=CCC2(CC1)OCCO2)c1ccccc1I
> 50 µM: HCT-15
inactive: T47D > 50 µM | COLO 205 > 50 µM | NCI-H23 > 50 µM | M14 > 50 µM | SN12C > 50 µM | HCT-116 > 50 µM | SNB-75 > 50 µM | EKVX 29.2 µM | NCI-H226 > 50 µM | HCC 2998 > 50 µM | MDA-MB-231 > 50 µM | 786-0 > 50 µM | HOP-62 > 50 µM | A549 > 50 µM | HOP-92 > 50 µM | OVCAR-4 > 50 µM | MDA-N > 50 µM | RPMI-8226 > 50 µM | SK-MEL-28 > 50 µM | NCI-H460 > 50 µM | SK-OV-3 > 50 µM | SF-295 > 50 µM | SK-MEL-2 > 50 µM | UACC-62 > 50 µM | HT-29 > 50 µM | MCF7 > 50 µM | UO-31 > 50 µM | OVCAR-8 > 50 µM | LOX IMVI > 50 µM | KM12 > 50 µM | CAKI-1 > 50 µM | OVCAR-5 > 50 µM | NCI/ADR-RES > 50 µM | U-251 > 50 µM | MOLT-4 > 50 µM | A498 > 50 µM | DU-145 > 50 µM | CCRF-CEM > 50 µM | UACC-257 > 50 µM | OVCAR-3 > 50 µM | SK-MEL-5 > 50 µM | SW-620 > 50 µM | PC-3 > 50 µM | ACHN > 50 µM | MDA-MB-435 > 50 µM | SR > 50 µM | SNB-19 > 50 µM | TK-10 > 50 µM
